Source: ChEMBL document CHEMBL1201862, “PubChem BioAssay data set” (2004)
Where “and” joins values, the source holds several entries; their conditions need not be identical. Identical values can stand only once. Calls of active or inactive are those of the source.

Assays:
[1] = Luminescence Cell-Based Dose Confirmation HTS to Identify Activators of 5'UTR Stem-Loop Driven Alpha-Synuclein mRNA Translation in H4 Neuroglioblastoma Cells. [Related pubchem assays: 1829 (Project Summary), 1814 (Primary HTS)]; type: functional
[2] = Luminescence Cell-Based Dose Response HTS to Identify Activators of Luciferase Translation or Activity in H4 […] Cells. [Related pubchem assays: 1829 (Project Summary), 1814 (Primary HTS)]; type: functional
H4 = experiment: Luminescence Cell-Based Dose Response HTS to Identify Activators of 5'UTR Stem-Loop Driven Prion Protein mRNA Translation in H4 Neuroglioblastoma Cells. [Related pubchem assays: 1829 (Project Summary), 1814 (Primary HTS)]; type: functional; details: Homo sapiens
Cytochrome P450 2D6 = Cytochrome P450 2D6 (Homo sapiens, UniProt P10635);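 also: CYP2D6 member of a cytochrome P450 panel assay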
Cytochrome P450 1A2 = target: T1, Cytochrome P450 1A2 (Homo sapiens, UniProt P05177);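 also: PubChem cytochrome P450 panel assay, CYP1A2 panel member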
T1 sequence (P05177 whole entry): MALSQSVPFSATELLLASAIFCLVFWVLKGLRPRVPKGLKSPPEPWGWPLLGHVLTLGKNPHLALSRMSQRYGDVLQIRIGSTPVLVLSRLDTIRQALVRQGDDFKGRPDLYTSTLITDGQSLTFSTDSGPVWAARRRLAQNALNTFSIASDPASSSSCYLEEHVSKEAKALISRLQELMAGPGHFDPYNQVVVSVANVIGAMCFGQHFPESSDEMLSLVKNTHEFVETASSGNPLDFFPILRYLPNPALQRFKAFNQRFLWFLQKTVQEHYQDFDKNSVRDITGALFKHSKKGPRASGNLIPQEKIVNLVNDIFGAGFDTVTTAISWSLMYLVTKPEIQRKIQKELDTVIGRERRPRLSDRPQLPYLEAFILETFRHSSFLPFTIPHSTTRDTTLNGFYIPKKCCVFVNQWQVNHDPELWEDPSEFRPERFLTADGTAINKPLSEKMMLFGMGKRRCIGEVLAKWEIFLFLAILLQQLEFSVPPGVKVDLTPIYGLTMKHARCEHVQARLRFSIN

[3] = target: T2, Heat shock factor protein 1 (Mus musculus, UniProt P38532); experiment: enhancement of HSF1-driven luciferase signal – cell-based, NIH3T3, luminescence, dose retest, confirmation (AID 435004); type: functional;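 also: stress induced by proteasome inhibitor MG132 added 30 min after compound; luciferase reporter driven by HSF1 response element in NIH3T3 cells; actives raise luminescence as potentiators of the MG132 stress response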
T2 sequence (P38532 whole entry): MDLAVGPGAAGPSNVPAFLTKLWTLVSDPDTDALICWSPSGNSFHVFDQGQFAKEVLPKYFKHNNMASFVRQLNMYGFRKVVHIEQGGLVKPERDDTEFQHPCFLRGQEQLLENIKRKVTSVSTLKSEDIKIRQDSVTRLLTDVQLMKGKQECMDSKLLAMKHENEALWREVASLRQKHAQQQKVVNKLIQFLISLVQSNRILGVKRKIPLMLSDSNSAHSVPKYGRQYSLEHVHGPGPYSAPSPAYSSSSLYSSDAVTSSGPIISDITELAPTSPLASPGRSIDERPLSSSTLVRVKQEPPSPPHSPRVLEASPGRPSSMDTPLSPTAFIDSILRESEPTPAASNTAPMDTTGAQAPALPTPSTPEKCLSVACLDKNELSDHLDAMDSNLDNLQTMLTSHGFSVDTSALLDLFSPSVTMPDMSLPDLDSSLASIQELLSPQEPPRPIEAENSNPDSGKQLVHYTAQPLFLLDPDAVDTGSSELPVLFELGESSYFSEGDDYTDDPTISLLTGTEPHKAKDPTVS

H9c2 = experiment: cells; type: functional, cell-based; details: Rattus norvegicus, H9c2, Myocardium;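 also: confirmatory concentration-response retest of ultra-high-throughput screening hits for modulation of myocardial damage; cell death induced by hydrogen peroxide oxidative stress; compound pretreatment for 60 min then peroxide exposure for 2 h; potency is for protecting the cells against peroxide damage rather than for killing them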
Cytochrome P450 2C19 = Cytochrome P450 2C19 (Homo sapiens, UniProt P33261); experiment: Cytochrome panel assay with activity outcomes. Panel member name: p450-cyp2c19 Compounds with AC50 equal or less than 10 uM are considered active; type: functional
Cytochrome P450 3A4 = Cytochrome P450 3A4 (Homo sapiens, UniProt P08684);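 also: CYP3A4 tested as one member of a cytochrome P450 panel screen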
Sequence of Cytochrome P450 3A4 (P08684 whole entry): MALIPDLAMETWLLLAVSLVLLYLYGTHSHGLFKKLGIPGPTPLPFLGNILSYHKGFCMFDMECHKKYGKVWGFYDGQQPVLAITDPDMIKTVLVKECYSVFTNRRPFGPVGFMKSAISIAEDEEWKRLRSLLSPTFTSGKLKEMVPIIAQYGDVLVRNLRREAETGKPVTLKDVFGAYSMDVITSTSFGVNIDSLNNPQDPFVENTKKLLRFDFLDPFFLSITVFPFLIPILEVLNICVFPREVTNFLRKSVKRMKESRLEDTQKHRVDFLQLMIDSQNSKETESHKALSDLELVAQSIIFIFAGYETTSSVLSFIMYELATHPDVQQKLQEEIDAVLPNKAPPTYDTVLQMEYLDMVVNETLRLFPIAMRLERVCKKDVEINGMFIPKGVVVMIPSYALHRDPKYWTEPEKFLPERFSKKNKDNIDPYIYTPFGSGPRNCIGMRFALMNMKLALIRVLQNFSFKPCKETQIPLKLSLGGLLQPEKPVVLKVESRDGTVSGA

Sequence of Cytochrome P450 2D6 (P10635 whole entry): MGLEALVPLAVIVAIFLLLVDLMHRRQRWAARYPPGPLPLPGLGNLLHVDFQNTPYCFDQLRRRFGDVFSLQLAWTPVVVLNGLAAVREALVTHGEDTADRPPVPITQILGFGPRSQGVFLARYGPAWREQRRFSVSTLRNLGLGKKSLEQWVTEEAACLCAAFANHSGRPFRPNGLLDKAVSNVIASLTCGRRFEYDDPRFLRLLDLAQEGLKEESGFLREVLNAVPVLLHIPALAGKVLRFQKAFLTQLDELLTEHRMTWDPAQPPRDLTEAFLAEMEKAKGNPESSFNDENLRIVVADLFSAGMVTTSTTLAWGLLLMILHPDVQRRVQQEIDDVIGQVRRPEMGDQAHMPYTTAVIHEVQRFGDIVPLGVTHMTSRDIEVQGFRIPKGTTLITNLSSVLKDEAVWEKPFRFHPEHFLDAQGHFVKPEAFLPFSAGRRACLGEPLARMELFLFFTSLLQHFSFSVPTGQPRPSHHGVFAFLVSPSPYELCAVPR
Sequence of Cytochrome P450 2C19 (P33261 whole entry): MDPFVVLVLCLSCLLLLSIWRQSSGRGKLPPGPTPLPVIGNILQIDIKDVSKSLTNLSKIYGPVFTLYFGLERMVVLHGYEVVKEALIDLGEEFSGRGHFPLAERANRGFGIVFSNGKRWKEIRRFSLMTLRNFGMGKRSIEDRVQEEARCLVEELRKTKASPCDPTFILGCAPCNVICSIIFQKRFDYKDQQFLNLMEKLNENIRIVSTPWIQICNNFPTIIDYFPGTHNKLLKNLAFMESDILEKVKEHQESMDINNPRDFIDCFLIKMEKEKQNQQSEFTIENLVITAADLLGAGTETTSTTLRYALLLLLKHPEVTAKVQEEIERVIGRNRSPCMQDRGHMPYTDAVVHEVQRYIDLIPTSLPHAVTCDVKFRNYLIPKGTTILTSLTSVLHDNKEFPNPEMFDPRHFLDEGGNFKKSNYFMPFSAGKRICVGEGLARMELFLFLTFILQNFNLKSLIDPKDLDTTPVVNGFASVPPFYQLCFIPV

In the case of `Cc1cc(NC(=O)NC(=O)c2ccccc2)no1`, the EC50 [1] is reported as 3.66 µM (active), the EC50 [2] is reported as 7.68 µM (active) and the EC50 (H4) is reported as 42.3 µM (inconclusive).
With `O=C(CSC1CC(=O)N(CC(c2ccccc2)c2ccccc2)C1=O)Nc1ccc(Cl)cc1` (configuration not stated) the AC50 (Cytochrome P450 2D6) was 2 µM (inconclusive) and the AC50 (Cytochrome P450 1A2) was 35.5 µM (inconclusive).
With `COc1cccc(C2C(C(N)=O)=C(C)Nc3nc(-c4cccc(Cl)c4)nn32)c1` (configuration not stated) the EC50 [3] was 71.9 µM (active).
In the case of `CC1(C)Cc2nc(NCCN3CCOCC3)c(C#N)cc2CO1`, the EC50 [3] is reported as > 260 µM (inactive).
With `CC1SCC(=NOCc2ccccc2)CS1` (configuration not stated) the EC50 [1] was 14.5 µM (active), the EC50 [2] was 17.7 µM (active) and the EC50 (H4) was 18.2 µM (active).
For `Cc1cccc(NC(=O)CSc2nc(O)c3c(C)cc(C)nc3n2)c1`, the AC50 (Cytochrome P450 2D6) was 15.8 µM (inconclusive).
With `Cc1ccc(S(=O)(=O)N(C)C)cc1NC(=O)COC(=O)c1c(C)noc1C` the EC50 [3] was > 260 µM (inactive).
With `Cn1c(C(=O)NCc2cccs2)cc2c(=O)n(C)c3ccccc3c21` the IC50 (H9c2) was > 79 µM (inactive).
In the case of `COc1cccc(NC(=O)CN(C)C(=O)Cc2nnc(O)c3ccccc23)c1`, the IC50 (H9c2) is reported as > 79 µM (inactive).
For `CCCN1CCC(=NNc2ccc(C(=O)O)cc2)CC1`, the EC50 [1] was 7.27 µM (active), the EC50 [2] was 30.4 µM (active) and the EC50 (H4) was 10.7 µM (active).
In the case of `COc1ccc(-c2cn3c(C)c(C(=O)NC(C)(C)C)sc3n2)cc1`, the EC50 [1] is reported as 1.06 µM (active), the EC50 [2] is reported as 31.5 µM (active) and the EC50 (H4) is reported as > 120 µM (not active).
With `Cc1ccc(C(=O)NC2CCCN(c3ccc(C(F)(F)F)cn3)C2)cn1` (configuration not stated) the EC50 [3] was > 260 µM (inactive).
For `O=C(/C=C/c1ccc(Cl)cc1)NCCN1CCOCC1`, the AC50 (Cytochrome P450 2C19) was “inconclusive”.
For `COC(=O)c1ccc(N(CC(=O)NC2CCCCC2)C(=O)CNC(=O)c2ccco2)cc1`, the EC50 [3] was > 260 µM (inactive).
For `CN(CC(=O)Nc1ccccc1Br)C(=O)Cn1[nH]c(=O)c2ccccc2c1=O`, the IC50 (H9c2) was > 79 µM (inactive).
With `CC(OC(=O)CCc1nc(O)c2ccccc2n1)C(=O)Nc1ccc2c(c1)OCO2` (configuration not stated) the IC50 (H9c2) was 39.1 µM (inactive).
For `CS(=O)(=O)Nc1ccc(-c2ccc3nccn3c2)cc1`, the IC50 (H9c2) was > 79 µM (inactive).
For `COc1ccc(C=CC(=O)c2ccc3cc(OC)c(OC)cc3c2)cc1OC`, the IC50 (H9c2) was > 79 µM (inactive).
With `O=C1[C@H]2[C@@H](c3ccc(C(F)(F)F)cc3)N[C@]3(CCCN(Cc4ccc(F)cc4)C3=O)[C@H]2C(=O)N1Cc1ccccc1` the IC50 (H9c2) was > 79 µM (inactive).
For `COc1ccccc1NC(=O)COc1ccc(/C=N/NC(=O)c2cccnc2)cc1`, the IC50 (H9c2) was 17.2 µM (active).
In the case of `COc1cc(/C=N/N2C(=O)c3ccccc3NC2(C)c2cccc([N+](=O)[O-])c2)cc(Br)c1O` (configuration not stated), the EC50 [3] is reported as 34.1 µM (active).
For `O=C(Nc1ccccc1)N[C@H]1C[C@H](C(=O)O)Nc2cc(Cl)cc(Cl)c21`, the AC50 (Cytochrome P450 2C19; read-out: AC50) was 25.1 µM (inconclusive), the AC50 (Cytochrome P450 1A2) was 39.8 µM (inconclusive) and the AC50 (Cytochrome P450 3A4) was 25.1 µM (inconclusive).
With `O=C1/C(=C\c2ccc(Br)o2)S/C(=N/c2ccccc2)N1c1ccccc1` the AC50 (Cytochrome P450 2C19; read-out: AC50) was 7.94 µM (inconclusive).
For `O=[N+]([O-])c1ccc(N/N=C2\CC3CC=CC23)cc1` (configuration not stated), the EC50 [1] was 15.2 µM (active), the EC50 [2] was 13.2 µM (active) and the EC50 (H4) was 24.3 µM (active).
In the case of `COC(=O)c1ccc(/N=C/c2c(C(F)(F)F)n[nH]c2O)cc1`, the EC50 [1] is reported as > 120 µM (not active), the EC50 [2] is reported as > 120 µM (not active) and the EC50 (H4) is reported as > 120 µM (not active).
With `O=S(=O)(N/N=C\c1cccn1-c1ccccc1)c1ccc2ccccc2c1` the AC50 (Cytochrome P450 2C19; read-out: AC50) was 0.794 µM (inconclusive).
For `O=[N+]([O-])c1cccc(/C=N/N2CCN(Cc3ccccc3)CC2)c1`, the EC50 [1] was 14.7 µM (active), the EC50 [2] was 20.8 µM (active) and the EC50 (H4) was 20.2 µM (active).
With `N[C@@H](CSS(=O)(=O)O)C(=O)O` the AC50 (Cytochrome P450 2C19; read-out: AC50) was 7.94 µM (inconclusive) and the AC50 (Cytochrome P450 1A2) was 39.8 µM (inconclusive).
With `CCN(CC)CCNC(=O)c1cc(S(C)(=O)=O)ccc1OC` [TIAPRIDE] the AC50 (Cytochrome P450 2D6) was 7.94 µM (inconclusive) and 31.6 µM (inconclusive).
